According to US9345722B2, “Pharmaceutical formulations for the treatment of alzheimer's disease” (EMISPHERE TECHNOLOGIES, INC., priority 2006, dated 2016):

Experiments:
[1] = investigational studies, background; cited from earlier work
[2] = Oral delivery of CPHPC in rats, serum CPHPC concentrations; type: in vivo
Protocol: One group of rats were dosed by oral gavage a solution containing 200 mg/kg SNAC and 10 mg/kg CPHPC (Group 1). The dosing volume was 1 mL/kg. Two groups of rats also received, respectively, control arms of 10 mg/kg CPHPC alone via oral gavage (Group 2) and 0.2 mg/kg of CPHPC via IV (Group 3).
Serum CPHPC concentrations […]) were measured over 40 minutes.

[3] = CPHPC added to solvents to the point of saturation (donor solutions); type: physicochemical; settings: ethanolamine as solvent
Protocol: CPHC was added to the solvents listed in Table 1 below to the point of saturation: […]

Question: Which oral bioavailability [1] does the source give for O=C(O)[C@H]1CCCN1C(=O)CCCCC(=O)N1CCC[C@@H]1C(=O)O [CPHPC, R-1-(6-(R-2-carboxy-pyrrolidin-1-yl)-6-oxo-hexanoyl)pyrrolidine-2-carboxylic acid] here?
Answer: poor oral bioavailability

Question: And the Serum CPHPC concentration ([2]; Group 1: 200 mg/kg SNAC and 10 mg/kg CPHPC via PO, 0 min.)?
Answer: 0 ng/mL

Question: And the Serum CPHPC concentration ([2]; Group 1: 200 mg/kg SNAC and 10 mg/kg CPHPC via PO, 5 min.)?
Answer: 2960 ± 1210 ng/mL

Question: And the Serum CPHPC concentration ([2]; Group 1: 200 mg/kg SNAC and 10 mg/kg CPHPC via PO, 10 min.)?
Answer: 5480 ± 526 ng/mL

Question: And the Serum CPHPC concentration ([2]; Group 1: 200 mg/kg SNAC and 10 mg/kg CPHPC via PO, 20 min.)?
Answer: 2800 ± 400 ng/mL

Question: And the Serum CPHPC concentration ([2]; Group 1: 200 mg/kg SNAC and 10 mg/kg CPHPC via PO, 40 min.)?
Answer: 1440 ± 219 ng/mL

Question: What about the Serum CPHPC concentration ([2]; Group 2: 10 mg/kg CPHPC alone via PO, 0 min.) of the same compound?
Answer: 0 ng/mL

Question: What about the Serum CPHPC concentration ([2]; Group 2: 10 mg/kg CPHPC alone via PO, 5 min.) of the same compound?
Answer: 1060 ± 107 ng/mL

Question: What about the Serum CPHPC concentration ([2]; Group 2: 10 mg/kg CPHPC alone via PO, 10 min.) of the same compound?
Answer: 1420 ± 171 ng/mL

Question: What about the Serum CPHPC concentration ([2]; Group 2: 10 mg/kg CPHPC alone via PO, 20 min.) of the same compound?
Answer: 667 ± 97.1 ng/mL

Question: What about the Serum CPHPC concentration ([2]; Group 2: 10 mg/kg CPHPC alone via PO, 40 min.) of the same compound?
Answer: 175 ± 15 ng/mL

Question: What about the Serum CPHPC concentration ([2]; Group 3: 0.2 mg/kg CPHPC via IV, 0 min.) of the same compound?
Answer: 0 ng/mL

Question: And the Serum CPHPC concentration ([2]; Group 3: 0.2 mg/kg CPHPC via IV, 5 min.)?
Answer: 223 ± 19.5 ng/mL

Question: What about the Serum CPHPC concentration ([2]; Group 3: 0.2 mg/kg CPHPC via IV, 10 min.) of the same compound?
Answer: 229 ± 44.8 ng/mL

Question: And the Serum CPHPC concentration ([2]; Group 3: 0.2 mg/kg CPHPC via IV, 20 min.)?
Answer: 170 ± 26.2 ng/mL

Question: And the Serum CPHPC concentration ([2]; Group 3: 0.2 mg/kg CPHPC via IV, 40 min.)?
Answer: 65.4 ± 25.7 ng/mL

Question: What about the “Solubility of CPHPC in ethanolamine compared with the other solvents” value [3] of the same compound?
Answer: much more soluble in ethanolamine
